Results: patent publication US11718611B2, “Benzenesulfonylbenazamide compound for inhibiting BCL-2 protein and composition and use thereof” (Shenzhen TargetRx, Inc., priority 2017, dated 2023)

Key:
[1] = Liver microsomal metabolism experiment (metabolic stability); assay type: in vitro ADME; settings: pH 7.4; mouse liver microsomes 0.5 mg/mL, compound 1 μM
Description: Microsome assay: mouse liver microsomes: 0.5 mg/mL, Xenotech; coenzyme (NADPH/NADH): 1 mM, Sigma Life Science; magnesium chloride: 5 mM, 100 mM phosphate buffer (pH 7.4).
Preparation of stock solutions: Powder of the compounds were accurately weighed and dissolved in DMSO to 5 mM.
Preparation of phosphate buffer (100 mM, pH7.4): A pre-prepared 0.5M potassium dihydrogen phosphate (150 mL) was mixed with 0.5M dibasic potassium phosphate (700 mL). The pH of the mixture was adjusted to 7.4 with 0.5M dibasic potassium phosphate solution. The mixture was diluted 5-fold with ultrapure water before use, and magnesium chloride was added to obtain a phosphate buffer (100 mM) containing 100 mM potassium phosphate, 3.3 mM magnesium chloride, pH 7.4.
A NADPH regeneration system solution (containing 6.5 mM NADP, 16.5 mM G-6-P, 3 U/mL G-6-P D, 3.3 mM magnesium chloride) was prepared and placed on wet ice prior to use.
Preparation of stop solution: an acetonitrile solution containing 50 ng/mL propranolol hydrochloride and 200 ng/mL tolbutamide (internal standard). 25057.5 μL of phosphate buffer (pH 7.4) was taken into a 50 mL centrifuge tube, to which 812.5 μL mouse liver microsomes were added, and mixed to obtain a liver microsome dilution with a protein concentration of 0.625 mg/mL.
Incubation of the samples: The stock solutions of the respective compounds were respectively diluted to 0.25 mM with an aqueous solution containing 70% acetonitrile, and used as a working solution, ready for use. 398 μL of the dilution of human liver microsomes or rat mouse liver microsomes were added to 96-well incubation plates (N=2), respectively, and 2 μL of 0.25 mM working solution was added and mixed.
Metabolic stability assay: 300 μL of pre-chilled stop solution was added to each well of 96-well deep well plates and placed on ice as stop plates. The 96-well incubation plates and NADPH regeneration system were placed in a 37° C. water bath box, shaken at 100 rpm and pre-incubated for 5 min. 80 μL of incubation solution was taken out from each well of the incubation plates and added to the stop plates, mixed, and replenished with 20 μL of NADPH regeneration system solution as a 0-min sample. 80 μL of NADPH regeneration system solution was added to each well of the incubation plates to start the reaction and start counting. […] Separately, 100 μL of the reaction solutions was taken at 10, 30, and 90 min reaction, respectively, added to stop plates, and vortexed for 3 minutes to terminate the reaction. The stop plates were centrifuged at 5000×g at 4° C. for 10 min. 100 μL of the supernatant was added to a 96-well plate to which 100 μL of distilled water was previously added, mixed, and analyzed by LC-MS/MS.
Data analysis: The peak areas of the corresponding compounds and internal standard were detected by LC-MS/MS system, and the ratio of the peak area of the compounds to the internal standard was calculated.

[2] = Pharmacokinetic experiment in rats; assay type: in vivo, SD rat; settings: male SD rats, i.g., 3 mg/kg; for AUC(0-t) / Cmax / MRT / Tmax: rat, plasma, po
Description: Experimental Objective: To investigate the pharmacokinetic behavior of the compounds of the present disclosure after the rats being administered with the test compounds.
Species and strain: SD rat grade: SPF grade
Gender and quantity: male, 6
Experimental procedures: Before blood samples were collected, 20 μL of 2 M sodium fluoride solution (esterase inhibitor) was previously added to an EDTA-K2 anticoagulant tube, dried in an 80° C. oven, and placed in a 4° C. refrigerator.
Rats (male, weighing 187 to 197 g) were randomly divided into 2 groups, and were fasted overnight in the afternoon before the experiment but were allowed to drink water freely. Food was given 4 hours after the administration. Group A was given Venetoclaxr (3 mg/kg), and group B was given example compounds 1 to 7 (3 mg/kg). About 100-200 μL of blood was taken from the orbital vein of rats at 15 min, 30 min, 1, 2, 3, 5, 8 and 10 h after administration, placed in a 0.5 mL Eppendorf tube with EDTA-K2 anticoagulant and mixed immediately. After anticoagulation, the tube was gently inverted 5-6 times as quickly as possible. After the blood was taken, it was placed in an ice box, and then within 30 min, the blood sample was centrifuged for 10 min at 4000 rpm and 4° C. to separate the plasma. Immediately after collection of all plasma, it was stored at −20° C. The concentration of the drug in plasma at each time point was determined after sample collection at all time points.

[2H]C([2H])(C1=C(c2ccc(Cl)cc2)CC(C)(C)CC1)N1CCN(c2ccc(C(=O)NS(=O)(=O)c3ccc(NCC4CCOCC4)c([N+](=O)[O-])c3)c(Oc3cnc4[nH]ccc4c3)c2)CC1 (single isomer, unassigned) [Compound T-1, 4-(4-{[2-(4-chlorophenyl)-4,4-dimethylcyclohex-1-en-1-yl]methyl-d2}piperazin-1-yl)-N-({3-nitro-4-[(tetrahydro-2H-pyran-4-ylmethyl)amino]phenyl}sulfonyl)-2-(1H-pyrrolo[2,3-b]pyridin-5-yloxy)benzamide]
half-life at 1 μM [1]: 4.07 h
microsomal CLint at 1 μM [1]: 5.7 µL/min/mg

[2H]C([2H])(Nc1ccc(S(=O)(=O)NC(=O)c2ccc(N3CCN(C([2H])([2H])C4=C(c5ccc(Cl)cc5)CC(C)(C)CC4)CC3)cc2Oc2cnc3[nH]ccc3c2)cc1[N+](=O)[O-])C1CCOCC1 (single isomer, unassigned) [Compound T-2, 4-(4-{[2-(4-chlorophenyl)-4,4-dimethylcyclohex-1-en-1-yl]methyl-d2}piperazin-1-yl)-N-({3-nitro-4-[(tetrahydro-2H-pyran-4-ylmethyl-d2)amino]phenyl}sulfonyl)-2-(1H-pyrrolo[2,3-b]pyridin-5-yloxy)benzamide]
half-life at 1 μM [1]: 2.38 h
microsomal CLint at 1 μM [1]: 9.7 µL/min/mg

[2H]C([2H])(Nc1ccc(S(=O)(=O)NC(=O)c2ccc(N3CCN(CC4=C(c5ccc(Cl)cc5)CC(C)(C)CC4)CC3)cc2Oc2cnc3[nH]ccc3c2)cc1[N+](=O)[O-])C1CCOCC1 (single isomer, unassigned) [Compound T-3, 4-(4-{[2-(4-chlorophenyl)-4,4-dimethylcyclohex-1-en-1-yl]methyl}piperazin-1-yl)-N-({3-nitro-4-[(tetrahydro-2H-pyran-4-ylmethyl-d2)amino]phenyl}sulfonyl)-2-(1H-pyrrolo[2,3-b]pyridin-5-yloxy)benzamide]
half-life at 1 μM [1]: 1.25 h
microsomal CLint at 1 μM [1]: 18.4 µL/min/mg
Cl—pred [2]: 40.2 mL/min/kg
F [2]: 7.10%
AUC(0-t) [2]: 4430 ng·h/mL
Cmax [2]: 680 ng/mL
MRT [2]: 5.07 h
Tmax [2]: 3.33 h

[2H]C([2H])(C1=C(c2ccc(Cl)cc2)CC(C)(C)CC1)N1C([2H])([2H])C([2H])([2H])N(c2ccc(C(=O)NS(=O)(=O)c3ccc(NCC4CCOCC4)c([N+](=O)[O-])c3)c(Oc3cnc4[nH]ccc4c3)c2)C([2H])([2H])C1([2H])[2H] (single isomer, unassigned) [Compound T-4, 4-(4-{[2-(4-chlorophenyl)-4,4-dimethylcyclohex-1-en-1-yl]-methyl-d2}piperazin-1-yl-2,2,3,3,5,5,6,6-d8)-N-({3-nitro-4-[(tetrahydro-2H-pyran-4-ylmethyl)amino]phenyl}sulfonyl)-2-(1H-pyrrolo[2,3-b]pyridin-5-yloxy)benzamide]
half-life at 1 μM [1]: 1.12 h
microsomal CLint at 1 μM [1]: 20.7 µL/min/mg

[2H]C1([2H])N(CC2=C(c3ccc(Cl)cc3)CC(C)(C)CC2)C([2H])([2H])C([2H])([2H])N(c2ccc(C(=O)NS(=O)(=O)c3ccc(NCC4CCOCC4)c([N+](=O)[O-])c3)c(Oc3cnc4[nH]ccc4c3)c2)C1([2H])[2H] (single isomer, unassigned) [Compound T-5, 4-(4-{[2-(4-chlorophenyl)-4,4-dimethylcyclohex-1-en-1-yl]methyl}piperazin-1-yl-2,2,3,3,5,5,6,6-d8)-N-({3-nitro-4-[(tetrahydro-2H-pyran-4-ylmethyl)amino]phenyl}sulfonyl)-2-(1H-pyrrolo[2,3-b]pyridin-5-yloxy)benzamide]
half-life at 1 μM [1]: 1.52 h
microsomal CLint at 1 μM [1]: 15.2 µL/min/mg

[2H]C([2H])(Nc1ccc(S(=O)(=O)NC(=O)c2ccc(N3C([2H])([2H])C([2H])([2H])N(CC4=C(c5ccc(Cl)cc5)CC(C)(C)CC4)C([2H])([2H])C3([2H])[2H])cc2Oc2cnc3[nH]ccc3c2)cc1[N+](=O)[O-])C1CCOCC1 (single isomer, unassigned) [Compound T-6, 4-(4-{[2-(4-chlorophenyl)-4,4-dimethylcyclohex-1-en-1-yl]methyl}piperazin-1-yl-2,2,3,3,5,5,6,6-d8)-N-({3-nitro-4-[(tetrahydro-2H-pyran-4-ylmethyl-d2)amino]phenyl}sulfonyl)-2-(1H-pyrrolo[2,3-b]pyridin-5-yloxy)benzamide]
half-life at 1 μM [1]: 1.3 h
microsomal CLint at 1 μM [1]: 17.8 µL/min/mg

[2H]C([2H])(Nc1ccc(S(=O)(=O)NC(=O)c2ccc(N3C([2H])([2H])C([2H])([2H])N(C([2H])([2H])C4=C(c5ccc(Cl)cc5)CC(C)(C)CC4)C([2H])([2H])C3([2H])[2H])cc2Oc2cnc3[nH]ccc3c2)cc1[N+](=O)[O-])C1CCOCC1 (single isomer, unassigned) [Compound T-7, 4-(4-{[2-(4-chlorophenyl)-4,4-dimethylcyclohex-1-en-1-yl]methyl-d2}piperazin-1-yl-2,2,3,3,5,5,6,6-d8)-N-({3-nitro-4-[(tetrahydro-2H-pyran-4-ylmethyl-d2)amino]phenyl}sulfonyl)-2-(1H-pyrrolo[2,3-b]pyridin-5-yloxy)benzamide]
half-life at 1 μM [1]: 5.11 h
microsomal CLint at 1 μM [1]: 4.5 µL/min/mg

CC1(C)CCC(CN2CCN(c3ccc(C(=O)NS(=O)(=O)c4ccc(NCC5CCOCC5)c([N+](=O)[O-])c4)c(Oc4cnc5[nH]ccc5c4)c3)CC2)=C(c2ccc(Cl)cc2)C1 [Venetoclax, 4-(4-{[2-(4-chlorophenyl)-4,4-dimethylcyclohex-1-en-1-yl]methyl}piperazin-1-yl)-N-({3-nitro-4-[(tetrahydro-2H-pyran-4-ylmethyl)amino]phenyl}sulfonyl)-2-(1H-pyrrolo[2,3-b]pyridin-5-yloxy)benzamide, reference compound]
half-life at 1 μM [1]: 1.35 h
microsomal CLint at 1 μM [1]: 17.1 µL/min/mg
Cl—pred [2]: 54.7 mL/min/kg
F [2]: 3.47%
AUC(0-t) [2]: 3060 ng·h/mL
Cmax [2]: 478 ng/mL
MRT [2]: 5.22 h
Tmax [2]: 3.33 h
